This is an account of results in patent US20110244078A1 (priority 2010, published 2011).

The nature of this series: Moisture sensitivity: degradation of the isothiocyanate suspended in aqueous phosphate buffer. The class given is physicochemical. Particulars: WMEO (about 25% 4-HBITC) suspended in aqueous phosphate buffer, pH about 3.6, about 20-23° C. From the text:
As used herein, the term “moisture sensitive” means that the isothiocyanate compound degrades in the presence of water. This degradation proceeds via a hydrolysis reaction, thereby leading to a reduction in level of the active isothiocyanate antimicrobial agent with time of storage in the presence of water. The method for determining moisture sensitivity is set forth in the Test Method section below. […]
Moisture sensitive isothiocyanate compounds are identified by suspending the isothiocyanate containing material in an aqueous phosphate buffer (pH of about 3.6) at room temperature. […] The extraction procedure is repeated after 24 hours and the level of residual isothiocyanate compound is measured by supercritical fluid chromatography. […]
A white mustard essential oil is generated by adding water to ground white mustard seeds and then extracting the essential oil with supercritical carbon dioxide according to the known processes described in the art. […] The essential oil is suspended in an aqueous phosphate buffer (pH of about 3.6) at room temperature (about 20-23° C.) and the level of 4-hydroxybenzyl isothiocyanate measured at time zero and after about 24 hours of storage as described in the preceding section. […]

Regarding `Oc1ccc(CN=C=S)cc1` [4-hydroxybenzyl isothiocyanate], the “percent reduction in level of 4-hydroxybenzyl isothiocyanate after 24 hours” value is “about 72%”.
